# Laboratory results reported in patent US9810687B2, “Nanocomposites and methods of making same” (BOARD OF TRUSTEES OF THE UNIVERSITY OF ARKANSAS, priority 2013, dated 2017).
# Columns and labels:
# [1] = tested on: human pancreatic cancer cell line Panc-1; test: Anticancer/apoptotic effects of PTL, DMAPT and their fGn complexes; conditions: drug alone or as mixture with fGn
# Protocol: A water-soluble PTL analog, dimethylaminoparthenolide (DMAPT), was also examined for comparison with the anticancer efficacy of our PTL-fGn complex.
# PTL was obtained from Sigma-Aldrich (USA). […] PTL and DMAPT were dissolved in DMSO to create 10 mM stock solutions. To create the PTL-fGn and DMAPT-fGn complexes, the drug was added to fGn solution in media (final drug-fGn complex concentrations were 1, 10, 20, 30, 50, and 100 mM drug and 10 mg/ml fGn), sonicated for 1 h, and then stored at 4° C. before being incubated with cancer cell, such as, Panc-1 cells, or being delivered to a patient.
# Panc-1 = test: Cytotoxicity of GA delivered by Gn and SWCNT, pancreatic cancer cells; assay type: cell-based, human; conditions: pancreatic cancer cells in vitro
# Protocol: (§1) In this example, Gn and SWCNT were used to deliver the natural low-toxicity drug GA to breast and pancreatic cancer cells in vitro, and the effectiveness of this complex in suppressing cellular integrity was assessed. Cytotoxicity was assessed by measuring lactate dehydrogenase release, mitochondria dehydrogenase activity, mitochondrial membrane depolarization, DNA fragmentation, intracellular lipid content, and membrane permeability/caspase activity. […] This analysis represents a first step toward assessing their effectiveness in more complex, targeted, nanodelivery systems.
# (§2) Gn and SWCNT (10 μg/ml) were mixed with GA (0.5, 0.75 and 1 μg/ml) to be described as GA+Gn and GA+SWCNT. First, the samples were vortexed at a high speed for at least 4 h to allow the drug to bind to the nanomaterials via π-π stacking. […] The loading concentrations of the GA on Gn and SWCNT were determined by UV-Vis absorbance at 360 nm measured using a Shimadzu UV-3600 spectrophotometer (Shimadzu Scientific Instruments, Colombia, Me., USA).
# (§3) The amount of drug loaded was calculated by peak absorbance at 360 nm after subtracting the background of absorbance from Gn and SWCNT. It is determined that, after vortexing, 98% of the free GA was bound to the Gn (GA−Gn=0.98: 10 μg/ml) and that 88% was bound to the SWCNT (GA−SWCNT=0.88: 10 μg/ml).
# MCF-7 = test: Cytotoxicity of GA delivered by Gn and SWCNT, breast cancer cells; assay type: cell-based, human; conditions: breast cancer cells in vitro
# Protocol: as §1, §2, §3
Compound,IC50 [1],antiproliferative effects upon nanodelivery (Panc-1),antiproliferative effects upon nanodelivery (MCF-7)
"C/C1=C\CC[C@@]2(C)O[C@@H]2[C@H]2OC(=O)[C@H](CN(C)C)[C@@H]2CC1 [DMAPT, dimethylaminoparthenolide]",significantly higher than that for PTL-fGn,–,–
"CC(C)=CCC[C@]1(C)C=Cc2c(O)c3c(c(CC=C(C)C)c2O1)O[C@]12C(=C[C@@H]4C[C@H]1C(C)(C)O[C@@]2(C/C=C(/C)C(=O)O)C4=O)C3=O [GA, Gambogic Acid]",–,significantly enhanced,significantly enhanced
